Measured values: patent publication US20100268321A1, “DRUG-RELEASING GRAFT” (C R BARD, INC., priority 2005, published 2010)

Assay: Controlled release study: release of chlorhexidine acetate (ChAc) from drug-loaded ePTFE vascular cuff graft sections into PBS, UV absorbance
Assay type: physicochemical
Details: from ePTFE cuff section in PBS
Procedure: With respect to a vascular cuff graft, examples of which are shown in FIGS. 2 and 3, experimentation was conducted to study the release of a drug without a polymeric carrier from the cuff surface. The drug chosen for the experiment was chlorhexidine acetate (ChAc) and the release time was scheduled for nine weeks. The materials and methods of the experiment included creating a calibration curve, preparing the vascular cuff grafts, and measuring absorbance, each of which is described in detail below.
Initially, a calibration curve was created to determine the concentration of ChAc in phosphate buffered saline (PBS). […] The absorbance of each of these solutions was determined using the Shimadzu UV-1601 spectrophotometer. A curve of absorbance versus concentration was expected to be linear. […]
To prepare the vascular cuff grafts, the drug was embedded therein using the following procedure. […] The cuff section weights with the loaded drug were then determined and recorded. The cuff section weights without the loaded drug were determined after the study by washing the cuffs with ethanol and drying. […]
Absorbance was measured to determine the amount of drug released from the cuff sections. […] The PBS solutions were then analyzed using the Shimadzu UV 1600 spectrophotometer. […] The absorbance at ˜286 nm was recorded by automatic peak detection by the spectrophotometer. […]

For CC(=O)O.CC(=O)O.NC(=N\CCCCCC/N=C(N)/N=C(\N)Nc1ccc(Cl)cc1)/N=C(\N)Nc1ccc(Cl)cc1 [ChAc, chlorhexidine acetate], which “levels of the drug in release medium” value (after nine weeks) is on record?
The value was “still detectable”.

And the drug released (after one day)?
Its drug released is “approximately 50%”.
